ChEMBL document CHEMBL6078662, “Discovery of 3-(2-aminobenzo[d]thiazol-5-yl) benzamide derivatives as potent anticancer agents via ROR1 inhibition” (Bioorg Med Chem, 2025)
Blank lines part the entries; values can stand above or below the molecule they belong to. Calls of active or inactive are those of the source. The rule behind the calls is not given here.

Key:
[1] = system: A549; assay: Antiproliferative activity against human A549 cells assessed as inhibition of cell proliferation incubated for 72 hrs by MTT assay; assay type: functional, cell-based; details: for IC50: A549, 72 h
[2] = system: PC-9; assay: Antiproliferative activity against human PC-9 cells assessed as inhibition of cell proliferation incubated for 72 hrs by MTT assay; assay type: functional, cell-based; details: for IC50: PC-9, 72 h
[3] = system: NCI-H1975; assay: Antiproliferative activity against human NCI-H1975 cells assessed as inhibition of cell proliferation incubated for 72 hrs by MTT assay; assay type: functional, cell-based; details: for IC50: NCI-H1975, 72 h
[4] = Cytotoxicity against human MRC5 cells assessed as inhibition of cell proliferation incubated for 72 hrs by MTT assay; assay type: toxicity, cell-based
[5] = Selectivity index, ratio of IC50 for cytotoxicity against human MRC5 cells assessed as inhibition of cell proliferation to IC50 for antiproliferative activity against human NCI-H1975 cells assessed as inhibition of cell proliferation; assay type: toxicity, cell-based; details: MRC5 cells and NCI-H1975 cells, read-out: Ratio IC50
[6] = system: NCI-H1975; assay: Inhibition of colony formation in human NCI-H1975 cells assessed as decrease in number of colonies incubated for 72 hrs by crystal violet staining based assay; assay type: functional, cell-based; details: dose 1.75-7 µM
[7] = system: NCI-H1975; assay: Antiproliferative activity against human NCI-H1975 cells assessed as suppression of cell growth incubated for 72 hrs by MTT assay; assay type: functional, cell-based; details: dose 7.0 µM
[8] = target: Inactive tyrosine-protein kinase transmembrane receptor ROR1 (Homo sapiens) (UniProt Q01973); assay: Inhibition of ROR1 phosphorylation in human NCI-H1975 cells upto 7 uM incubated for 48 hrs by Western blot analysis; assay type: cell-based
Inactive tyrosine-protein kinase transmembrane receptor ROR1 (Homo sapiens), sequence (Q01973 whole entry): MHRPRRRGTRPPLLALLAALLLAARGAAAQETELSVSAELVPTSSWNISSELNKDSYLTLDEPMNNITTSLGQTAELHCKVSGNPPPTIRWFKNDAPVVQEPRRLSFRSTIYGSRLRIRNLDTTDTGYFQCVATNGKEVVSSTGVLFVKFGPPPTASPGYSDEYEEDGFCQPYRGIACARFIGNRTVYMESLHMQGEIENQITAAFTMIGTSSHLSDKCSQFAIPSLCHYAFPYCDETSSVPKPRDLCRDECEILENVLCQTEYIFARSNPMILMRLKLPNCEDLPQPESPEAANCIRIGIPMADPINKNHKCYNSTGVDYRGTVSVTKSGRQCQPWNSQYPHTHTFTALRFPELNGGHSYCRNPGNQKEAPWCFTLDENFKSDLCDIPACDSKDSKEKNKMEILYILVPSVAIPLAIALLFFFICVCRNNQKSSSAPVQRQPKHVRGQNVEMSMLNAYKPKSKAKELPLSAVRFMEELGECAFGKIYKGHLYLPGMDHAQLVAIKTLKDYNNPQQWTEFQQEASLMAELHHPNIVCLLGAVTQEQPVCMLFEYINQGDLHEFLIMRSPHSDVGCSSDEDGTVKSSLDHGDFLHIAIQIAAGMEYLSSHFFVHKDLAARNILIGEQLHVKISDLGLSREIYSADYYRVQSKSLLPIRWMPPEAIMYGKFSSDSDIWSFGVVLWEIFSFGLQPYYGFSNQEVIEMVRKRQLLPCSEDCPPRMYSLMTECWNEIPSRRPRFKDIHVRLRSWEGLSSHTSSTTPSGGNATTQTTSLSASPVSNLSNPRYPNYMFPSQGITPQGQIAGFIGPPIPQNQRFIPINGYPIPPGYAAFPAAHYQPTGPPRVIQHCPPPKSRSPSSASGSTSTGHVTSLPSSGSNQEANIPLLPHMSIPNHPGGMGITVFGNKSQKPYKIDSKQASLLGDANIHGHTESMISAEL

[9] = system: NCI-H1975; assay: Inhibition of SRC phosphorylation in human NCI-H1975 cells upto 7 uM incubated for 48 hrs by Western blot analysis; assay type: cell-based
[10] = target: MAP kinase p38 (Homo sapiens) (UniProt O15264+Q15759+Q16539+P53778); assay: Inhibition of p38 phosphorylation in human NCI-H1975 cells upto 7 uM incubated for 48 hrs by Western blot analysis; assay type: cell-based
[11] = target: Inactive tyrosine-protein kinase transmembrane receptor ROR1 (Homo sapiens) (UniProt Q01973); assay: Binding affinity to ROR1 in human NCI-H1975 cells assessed as increase in thermal stability at 10 uM at 57 to 62 degreeC incubated for 4 hrs by CETSA analysis; assay type: cell-based
[12] = target: Inactive tyrosine-protein kinase transmembrane receptor ROR1 (Homo sapiens) (UniProt Q01973); assay: Binding affinity to ROR1 in human NCI-H1975 cells assessed as protection of pronase-mediated protein degradation preincubated with compound for 1 hr followed by pronase E addition and measured after 10 mins by DARTS assay; assay type: cell-based; details: dose <= 100.0 µM, time 70.0 min
[13] = system: NCI-H1975; assay: Inhibition of cell migration in human NCI-H1975 cells assessed as inhibition of wound closure at 1.75 to 7 uM measured at 24 to 48 hrs by wound healing assay; assay type: functional, cell-based; details: dose 1.75-7 µM, time 24-48 hrs
[14] = system: NCI-H1975; assay: Inhibition of cell migration in human NCI-H1975 cells assessed as inhibition of wound closure measured at 24 to 48 hrs by wound healing assay; assay type: functional, cell-based; details: dose 1.75-7 µM, time 24-48 hrs
[15] = system: NCI-H1975; assay: Inhibition of cell migration in human NCI-H1975 cells assessed as inhibition of wound closure at 1.75 to 7 uM by wound healing assay; assay type: functional, cell-based; details: dose 1.75-7 µM, time 24-48 hrs
[16] = system: NCI-H1975; assay: Anti-invasive activity against human NCI-H1975 cells assessed as reduction in number of invaded cells at 7 uM incubated for 24 hrs by crystal violet staining based light microscopic analysis; assay type: functional, cell-based
[17] = system: NCI-H1975; assay: Effect on MMP2 expression level in human NCI-H1975 cells incubated for 48 hrs by Western blot analysis; assay type: functional, cell-based; details: dose <= 7.0 µM
[18] = system: NCI-H1975; assay: Effect on ZEB1 expression level in human NCI-H1975 cells incubated for 48 hrs by Western blot analysis; assay type: functional, cell-based; details: dose <= 7.0 µM
[19] = system: NCI-H1975; assay: Effect on Vimentin expression level in human NCI-H1975 cells incubated for 48 hrs by Western blot analysis; assay type: functional, cell-based; details: dose <= 7.0 µM
[20] = system: NCI-H1975; assay: Effect on N-cadherin expression level in human NCI-H1975 cells incubated for 48 hrs by Western blot analysis; assay type: functional, cell-based; details: dose <= 7.0 µM
[21] = system: NCI-H1975; assay: Effect on E-cadherin expression level in human NCI-H1975 cells incubated for 48 hrs by Western blot analysis; assay type: functional, cell-based; details: dose <= 7.0 µM
[22] = system: NCI-H1975; assay: Induction of cell cycle arrest in human NCI-H1975 cells assessed as accumulation of cells at G1 phase incubated for 24 hrs by PI staining based flow cytometry analysis; assay type: functional; details: dose 1.75-7 µM
[23] = system: NCI-H1975; assay: Induction of cell cycle arrest in human NCI-H1975 cells assessed as decrease in accumulation of cells at G2/M phase incubated for 24 hrs by PI staining based flow cytometry analysis; assay type: functional; details: dose 1.75-7 µM
[24] = system: NCI-H1975; assay: Induction of cell cycle arrest in human NCI-H1975 cells assessed as reduction in cyclin-D1 expression incubated for 24 hrs by Western blot analysis; assay type: functional, cell-based; details: dose 1.75-7 µM
[25] = system: NCI-H1975; assay: Induction of cell cycle arrest in human NCI-H1975 cells assessed as reduction in c-Myc expression incubated for 24 hrs by Western blot analysis; assay type: functional, cell-based; details: dose 1.75-7 µM
[26] = system: NCI-H1975; assay: Induction of cell cycle arrest in human NCI-H1975 cells assessed as reduction in CDK2 expression incubated for 24 hrs by Western blot analysis; assay type: functional, cell-based; details: dose 1.75-7 µM
[27] = Half life in male Sprague-Dawley rat at 10 mg/kg, po measured upto 24 hrs by LC-MS/MS analysis; assay type: ADME, organism-based; details: in vivo
[28] = Tmax in male Sprague-Dawley rat at 10 mg/kg, po measured upto 24 hrs by LC-MS/MS analysis; assay type: ADME, organism-based; details: in vivo
[29] = Cmax in male Sprague-Dawley rat at 10 mg/kg, po measured upto 24 hrs by LC-MS/MS analysis; assay type: ADME, organism-based; details: in vivo
[30] = AUC (0 to infinity) in male Sprague-Dawley rat at 10 mg/kg, po measured upto 24 hrs by LC-MS/MS analysis; assay type: ADME, organism-based; details: in vivo
[31] = MRT (0 to infinity) in male Sprague-Dawley rat at 10 mg/kg, po measured upto 24 hrs by LC-MS/MS analysis; assay type: ADME, organism-based; details: in vivo

Compound: COCCNC(=O)c1cccc(-c2ccc3sc(NC(C)=O)nc3c2)c1
- IC50 [1]: > 40 µM
- IC50 [2]: > 40 µM
- IC50 [3]: > 40 µM
- IC50 at 72 h [4]: > 80 µM

Compound: COCCNC(=O)c1cccc(-c2ccc3sc(NC(=O)C(C)(C)C)nc3c2)c1
- IC50 [1]: > 40 µM
- IC50 [2]: > 40 µM
- IC50 [3]: 11.1 µM
- IC50 at 72 h [4]: > 80 µM
- selectivity ratio [5]: > 7.23

Compound: CC(C)CCNC(=O)c1cccc(-c2ccc3sc(NC(=O)c4ccc(F)cc4)nc3c2)c1
- IC50 [1]: 18.2 µM
- Activity ([1]; dose <= 40.0 µM): Dose-dependent-effect
- IC50 [2]: 8.11 µM
- Activity ([2]; dose <= 40.0 µM): Dose-dependent-effect
- IC50 [3]: 3.5 µM
- Activity ([3]; dose <= 40.0 µM): Dose-dependent-effect
- IC50 at 72 h [4]: > 80 µM
- selectivity ratio [5]: > 22.9
- inhibition [6]: Dose-dependent-effect
- Activity [7]: Dose-dependent-effect
- inhibition [8]: Active
- inhibition [9]: Active
- inhibition [10]: Active
- Activity [11]: Active
- Activity [12]: Dose-dependent-effect
- inhibition [13]: Active
- inhibition [14]: Dose-dependent-effect
- inhibition [15]: Time-dependent-effect
- Activity [16]: Active
- Activity [17]: Dose-dependent-effect
- Activity [18]: Dose-dependent-effect
- Activity [19]: Dose-dependent-effect
- Activity [20]: Dose-dependent-effect
- Activity [21]: Dose-dependent-effect
- Activity [22]: Dose-dependent-effect
- Activity [23]: Dose-dependent-effect
- Activity [24]: Dose-dependent-effect
- Activity [25]: Dose-dependent-effect
- Activity [26]: Dose-dependent-effect
- half-life [27]: 601 min
- Tmax [28]: 2 h
- Cmax [29]: 1120 ng/mL
- AUC(0-inf) [30]: 12400 ng·h/mL
- MRT inf [31]: 18.7 h

Compound: COCOc1cc(OCOC)c2c(c1)O[C@@H](c1ccc(OC)cc1)CC2=O
- IC50 [1]: > 40 µM
- IC50 [2]: 10.4 µM
- IC50 [3]: 6.06 µM
- IC50 at 72 h [4]: > 80 µM
- selectivity ratio [5]: > 13.2

Compound: CNc1cccc(NC(=O)c2ccc(C)c(C#Cc3cnc4cccnn34)c2)c1
- IC50 [1]: 27.5 µM
- IC50 [3]: 66.7 µM

Compound: CC(=O)Nc1nc2cc(-c3cccc(C(=O)NCCC(C)C)c3)ccc2s1
- IC50 [1]: > 40 µM
- IC50 [2]: 24.7 µM
- IC50 [3]: > 40 µM
- IC50 at 72 h [4]: > 80 µM

Compound: CC(C)(C)C(=O)Nc1nc2cc(-c3cccc(C(=O)NCC4CC4)c3)ccc2s1
- IC50 [1]: 27.6 µM
- IC50 [2]: 21.8 µM
- IC50 [3]: > 40 µM
- IC50 at 72 h [4]: > 80 µM

The next lines start with results.

- IC50 [1]: > 40 µM
- IC50 [2]: > 40 µM
- IC50 [3]: > 40 µM
Compound: CCC(=O)Nc1nc2cc(-c3cccc(C(=O)NCc4ccc(OC)cc4)c3)ccc2s1
- IC50 at 72 h [4]: > 80 µM

- IC50 [1]: > 40 µM
- IC50 [2]: > 40 µM
- IC50 [3]: 12.4 µM
Compound: Cc1ccc(CNC(=O)c2cccc(-c3ccc4sc(NC(=O)C(C)(C)C)nc4c3)c2)cc1
- IC50 at 72 h [4]: > 80 µM
- selectivity ratio [5]: > 6.43

- IC50 [1]: > 40 µM
- IC50 [2]: > 40 µM
- IC50 [3]: 12.3 µM
Compound: COc1ccc(CNC(=O)c2cccc(-c3ccc4sc(NC(=O)C(C)(C)C)nc4c3)c2)cc1
- IC50 at 72 h [4]: > 80 µM
- selectivity ratio [5]: > 6.52
